According to the NIST ThermoML archive (doi:10.1021/je501065g):

Details: Liquid, Pulse-echo method

c1ccccc1 [benzene]
Details	speed of sound [m/s]
283.2 K, 102.1 kPa	1372
283.2 K, 5280.1 kPa	1396
283.2 K, 10234 kPa	1418.2
283.2 K, 15332 kPa	1439.9
283.2 K, 20204 kPa	1460.2
283.2 K, 24857 kPa	1479
283.21 K, 29815 kPa	1498.1
298.2 K, 84.2 kPa	1299.7
298.2 K, 5421.7 kPa	1327
298.2 K, 10069 kPa	1349.5
298.2 K, 14866 kPa	1371
298.2 K, 20104 kPa	1394.3
298.2 K, 25018 kPa	1415.8
298.2 K, 30106 kPa	1436.9
313.2 K, 61.2 kPa	1230.4
313.2 K, 5536.5 kPa	1259.8
313.2 K, 10140 kPa	1283.5
313.2 K, 15332 kPa	1309
313.2 K, 20194 kPa	1332.2
313.2 K, 25204 kPa	1354.8
313.2 K, 29980 kPa	1375.7
333.21 K, 153.7 kPa	1139.7
333.21 K, 5378.8 kPa	1171.4
333.21 K, 10149 kPa	1198.3
333.21 K, 15038 kPa	1225
333.21 K, 19601 kPa	1248.5
333.21 K, 24756 kPa	1274
333.21 K, 30146 kPa	1299.2
353.2 K, 15092 kPa	1146.6
353.2 K, 19918 kPa	1173.2
353.21 K, 172.3 kPa	1052.2
353.21 K, 5094.9 kPa	1084.9
353.21 K, 10007 kPa	1116.2
353.21 K, 24680 kPa	1198.7
353.21 K, 30063 kPa	1226
